Measured values: article PMC11224111, “Optimizing the pharmacokinetics of an ^211At-labeled RGD peptide with an albumin-binding moiety via the administration of an albumin-binding inhibitor” (European Journal of Nuclear Medicine and Molecular Imaging, 2024)

Tests used:
[1] = mouse, in vivo; cited from earlier work
[2] = Radiation dose estimation (MIRDcalc, adult male) from mouse biodistribution; design: species or system human; settings: for Absorbed dose estimates, Bone marrow / Absorbed dose estimates, Brain / Absorbed dose estimates, Heart / Absorbed dose estimates, Kidney / Absorbed dose estimates, L. intestine / Absorbed dose estimates, Liver / Absorbed dose estimates, Lung / Absorbed dose estimates, Muscle / Absorbed dose estimates, Pancreas / Absorbed dose estimates, S. intestine / Absorbed dose estimates, Spleen / Absorbed dose estimates, Stomach / Absorbed dose estimates, Thyroid / Absorbed dose estimates, Tumor: adult male, MIRDcalc
Text: For estimation of the radiation dose absorbed, the blood, bone, and muscle mass of mice were assumed to be 8%, 5%, and 48% of body weight, respectively. The stomach was assumed to be distributed only in the wall, the heart, small intestine, and colon equally in the content and wall, and the colon was further assumed to be equally distributed in the left, right, and rectosigmoid. According to the International Commission on Radiological Protection, an equal distribution of radionuclide to trabecular and cortical bones was assumed. The non-decay-corrected activity from each source organ was converted into a percentage of the injected dose. The area under each organ’s activity curve from time 0 to infinity was calculated by extrapolation of biodistribution data. To correct for the different ratios of organ to total body weights in mouse and in human, we used the following organ correction factor (CR):
CR=organmass/totalbodymasshuman/organmass/totalbodymassmouse
Human organ weights and total body weights used data for adult males from previous reports. Tumor volume was converted from mouse-to-human total body weight ratio. According to the values, the radiation doses were calculated for an adult male patient using MIRDcalc v1.21 software (Society of Nuclear Medicine and Molecular Imaging). In the case of without administrating IPBA, calculation was performed using the data of a biodistribution study in our previous study.

[3] = test system: U-87 MG tumor-bearing mice; design: method as in PMID 37819452; settings: until 24-h postinjection, nonadministration of IPBA; cited from earlier work
[4] = test system: U-87 MG tumor-bearing mice; assay: Therapeutic experiments in U-87 MG tumor-bearing mice; type: in vivo; settings: for Relative body weight / Relative tumor volume: 1.85 MBq with IPBA; for Relative body weight: relative to initial body weight; for Relative tumor volume: relative to initial tumor volume
Procedure: To prepare tumor-bearing mice, 5 × 10^6 of U-87 MG cells were subcutaneously inoculated into the right shoulder of 4-week-old female BALB/c nude mice (13–15 g, Japan SLC, Inc.) as previously reported. At approximately 10-day postinoculation of U-87 MG cells, they were used for each experiment after tumor size reached 0.3–0.5 cm^3.
U-87 MG tumor-bearing mice were divided into three groups, [^211At]1 (1.85 MBq) (n = 6) injected group, only […] (1.85 MBq) and IPBA (n = 6) injected group, and vehicle and IPBA (n = 3) injected group as a control group. In IPBA injected group, it was administered at 10 molar equivalent of blood albumin at 1-h postinjection of [^211At]1 or vehicle. Tumor volume and body weight of mice were monitored 5 or 6 times weekly. Tumor size was measured with a slide caliper, and tumor volume was calculated using a formula: volume = 4/3 π (1/2 length × 1/2 width × 1/2 height). Tumor volume and body weight compared to the values on the day of treatment (relative tumor volume). The mice were euthanized humanely when body weight was less than 80% at baseline (day 0) or when the tumor weight reached more than 10% of body weight as the endpoint.

[5] = With IPBA, ratio of absorbed dose estimates
[6] = Without IPBA, calculated from data of ref 16
[7] = Without IPBA, ratio of absorbed dose estimates, calculated from data of ref 16

Substance: Ga-DOTA-K([^125I]IPBA)-c(RGDfK) [[^125I]2]
- Radioactivity, Blood [1]: 11.80 (0.75) % injected activity per gram
- Radioactivity, Bone [1]: 1.50 (0.26) % injected activity per gram
- Radioactivity, Brain [1]: 0.29 (0.03) % injected activity per gram
- Radioactivity, Heart [1]: 3.81 (0.18) % injected activity per gram
- Radioactivity, Kidney [1]: 3.70 (0.65) % injected activity per gram
- Radioactivity, L. intestine [1]: 1.20 (0.25) % injected activity per gram
- Radioactivity, Liver [1]: 1.96 (0.18) % injected activity per gram
- Radioactivity, Lung [1]: 5.60 (0.52) % injected activity per gram
- Radioactivity, Muscle [1]: 1.32 (0.16) % injected activity per gram
- Radioactivity, Neck [1]: 0.09 (0.02) % injected activity
- Radioactivity, Pancreas [1]: 2.05 (0.25) % injected activity per gram
- Radioactivity, S. intestine [1]: 1.58 (0.31) % injected activity per gram
- Radioactivity, Spleen [1]: 1.61 (0.12) % injected activity per gram
- Radioactivity, Stomach [1]: 0.87 (0.11) % injected activity

Substance: Ga-DOTA-K([^211At]APBA)-c(RGDfK) [[^211At]1]
- Absorbed dose to tumor tissue ([2]; 1.85 MBq with IPBA): 1.34 mGy
- Absorbed dose estimates, Bone marrow ([2]; With IPBA): 0.042 mGy/MBq
- Absorbed dose estimates, Brain ([2]; With IPBA): 0.017 mGy/MBq
- Absorbed dose estimates, Heart ([2]; With IPBA): 0.080 mGy/MBq
- Absorbed dose estimates, Kidney ([2]; With IPBA): 0.266 mGy/MBq
- Absorbed dose estimates, L. intestine ([2]; With IPBA): 0.056 mGy/MBq
- Absorbed dose estimates, Liver ([2]; With IPBA): 0.109 mGy/MBq
- Absorbed dose estimates, Lung ([2]; With IPBA): 0.203 mGy/MBq
- Absorbed dose estimates, Muscle ([2]; With IPBA): 0.300 mGy/MBq
- Absorbed dose estimates, Pancreas ([2]; With IPBA): 0.087 mGy/MBq
- Absorbed dose estimates, S. intestine ([2]; With IPBA): 0.052 mGy/MBq
- Absorbed dose estimates, Spleen ([2]; With IPBA): 0.117 mGy/MBq
- Absorbed dose estimates, Stomach ([2]; With IPBA): 0.051 mGy/MBq
- Absorbed dose estimates, Thyroid ([2]; With IPBA): 0.032 mGy/MBq
- Absorbed dose estimates, Tumor ([2]; With IPBA): 0.727 mGy/MBq
- Tumor/normal tissue ratio, Brain [2, 5]: 51.071
- Tumor/normal tissue ratio, Heart [2, 5]: 10.712
- Tumor/normal tissue ratio, Kidney [2, 5]: 3.226
- Tumor/normal tissue ratio, L. intestine [2, 5]: 15.349
- Tumor/normal tissue ratio, Liver [2, 5]: 7.872
- Tumor/normal tissue ratio, Lung [2, 5]: 4.227
- Tumor/normal tissue ratio, Muscle [2, 5]: 2.860
- Tumor/normal tissue ratio, Pancreas [2, 5]: 9.873
- Tumor/normal tissue ratio, S. intestine [2, 5]: 16.437
- Tumor/normal tissue ratio, Spleen [2, 5]: 7.333
- Tumor/normal tissue ratio, Stomach [2, 5]: 16.791
- Tumor/normal tissue ratio, Thyroid [2, 5]: 26.729
- Absorbed dose estimates, Bone marrow [2, 6]: 0.132 mGy/MBq
- Absorbed dose estimates, Brain [2, 6]: 0.218 mGy/MBq
- Absorbed dose estimates, Heart [2, 6]: 0.381 mGy/MBq
- Absorbed dose estimates, Kidney [2, 6]: 0.427 mGy/MBq
- Absorbed dose estimates, L. intestine [2, 6]: 0.193 mGy/MBq
- Absorbed dose estimates, Liver [2, 6]: 0.319 mGy/MBq
- Absorbed dose estimates, Lung [2, 6]: 0.976 mGy/MBq
- Absorbed dose estimates, Muscle [2, 6]: 0.557 mGy/MBq
- Absorbed dose estimates, Pancreas [2, 6]: 0.246 mGy/MBq
- Absorbed dose estimates, S. intestine [2, 6]: 0.190 mGy/MBq
- Absorbed dose estimates, Spleen [2, 6]: 0.354 mGy/MBq
- Absorbed dose estimates, Stomach [2, 6]: 0.176 mGy/MBq
- Absorbed dose estimates, Thyroid [2, 6]: 0.111 mGy/MBq
- Absorbed dose estimates, Tumor [2, 6]: 0.858 mGy/MBq
- Tumor/normal tissue ratio, Bone marrow [2, 7]: 6.500
- Tumor/normal tissue ratio, Brain [2, 7]: 3.936
- Tumor/normal tissue ratio, Heart [2, 7]: 2.252
- Tumor/normal tissue ratio, Kidney [2, 7]: 2.009
- Tumor/normal tissue ratio, L. intestine [2, 7]: 4.446
- Tumor/normal tissue ratio, Liver [2, 7]: 2.690
- Tumor/normal tissue ratio, Lung [2, 7]: 0.879
- Tumor/normal tissue ratio, Muscle [2, 7]: 1.540
- Tumor/normal tissue ratio, Pancreas [2, 7]: 3.488
- Tumor/normal tissue ratio, S. intestine [2, 7]: 4.516
- Tumor/normal tissue ratio, Spleen [2, 7]: 2.424
- Tumor/normal tissue ratio, Stomach [2, 7]: 4.875
- Tumor/normal tissue ratio, Thyroid [2, 7]: 7.730
- Excretion, feces [3]: 2.75 ± 0.40 %IA
- Excretion, urine [3]: 10.94 ± 2.66 %IA
- Body weight loss ([4]; 1.85 MBq followed by IPBA, temporary, recovered): less than 10%
- Tumor growth ([4]; 1.85 MBq followed by IPBA, vs control group): significantly more inhibited than it was in the control group
- Relative body weight ([4]; day 0 after injection): 1.00 (0.00)
- Relative tumor volume ([4]; day 0 after injection): 1.00 (0.00)
- Relative body weight ([4]; day 1 after injection): 0.99 (0.02)
- Relative tumor volume ([4]; day 1 after injection): 1.14 (0.11)
- Relative body weight ([4]; day 2 after injection): 0.99 (0.01)
- Relative tumor volume ([4]; day 2 after injection): 1.19 (0.09)
- Relative body weight ([4]; day 3 after injection): 0.97 (0.03)
- Relative tumor volume ([4]; day 3 after injection): 1.23 (0.15)
- Relative body weight ([4]; day 4 after injection): 0.96 (0.02)
- Relative tumor volume ([4]; day 4 after injection): 1.21 (0.18)
- Relative body weight ([4]; day 6 after injection): 0.93 (0.04)
- Relative tumor volume ([4]; day 6 after injection): 1.24 (0.17)
- Relative body weight ([4]; day 7 after injection): 0.94 (0.03)
- Relative tumor volume ([4]; day 7 after injection): 1.25 (0.19)
- Time within which all mice died ([4]; 1.85 MBq without IPBA): ≤ 9 days
